Test results from ChEMBL document CHEMBL1201862, “PubChem BioAssay data set” (2004).
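Where inhibition never reached the appropriate level, the endpoint shown equals the highest concentration tested. Otherwise, values were interpolated linearly from a five-concentration, 48-hour dose response in 96-well plates. Here, GI50 denotes the concentration required for 50% inhibition of growth.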 Active and inactive are the calls of the source. Rule as the data show it: active = GI50 up to about 1.1 µM and inactive = higher.

Experiments:
Test in all cases: NCI tumour cell line growth inhibition, 48 h
[1] = tested on: SK-OV-3
[2] = tested on: HOP-92
[3] = tested on: HCT-15
[4] = tested on: OVCAR-8
[5] = tested on: KM12
[6] = tested on: HOP-62
[7] = tested on: NCI-H226
[8] = tested on: 786-0
[9] = tested on: OVCAR-5
[10] = tested on: SNB-19
[11] = tested on: SNB-75
[12] = tested on: EKVX
[13] = tested on: SK-MEL-5
[14] = tested on: NCI-H23
[15] = tested on: NCI-H522
[16] = tested on: DLD-1
[17] = tested on: CAKI-1
[18] = tested on: KM-20L2
[19] = tested on: HT-29
[20] = tested on: HOP-18
[21] = tested on: SF-268
[22] = tested on: M14
[23] = tested on: UO-31
[24] = tested on: LOX IMVI
[25] = tested on: SK-MEL-28
[26] = tested on: U-251
[27] = tested on: NCI-H460
[28] = tested on: TK-10
[29] = tested on: IGROV-1
[30] = tested on: A549
[31] = tested on: M19-MEL
[32] = tested on: K562
[33] = tested on: UACC-62
[34] = tested on: UACC-257
[35] = tested on: RXF 631
[36] = tested on: OVCAR-4
[37] = tested on: COLO 205
[38] = tested on: HCT-116
[39] = tested on: SNB-78
[40] = tested on: RXF 393
[41] = tested on: HCC 2998
[42] = tested on: SF-539
[43] = tested on: Malme-3M
[44] = tested on: OVCAR-3
[45] = tested on: A498
[46] = tested on: MOLT-4
[47] = tested on: XF498
[48] = tested on: SF-295
[49] = tested on: SN12C
[50] = tested on: ACHN
[51] = tested on: DMS-273
[52] = tested on: LXFL 529
[53] = tested on: SR
[54] = tested on: HL-60
[55] = tested on: SW-620
[56] = tested on: RPMI-8226
[57] = tested on: SK-MEL-2
[58] = tested on: DMS-114
[59] = tested on: CCRF-CEM

Which GI50 [1] does the source give for CN(C)C(=S)/N=c1\sn(C)/c(=N\C(=S)N(C)C)n1C here?
Its GI50 is > 100 µM (inactive).

And the GI50 [2]?
The GI50 was > 100 µM (inactive).

And the GI50 [3]?
Its GI50 is > 100 µM.

And the GI50 [4]?
The GI50 was > 100 µM (inactive).

What about the GI50 [5] of the same compound?
Its GI50 is 86.1 µM (inactive).

And the GI50 [6]?
Its GI50 is > 100 µM (inactive).

What about the GI50 [7] of the same compound?
The GI50 was > 100 µM (inactive).

And the GI50 [8]?
The GI50 was > 100 µM (inactive).

And the GI50 [9]?
The GI50 was > 100 µM (inactive).

What about the GI50 [10] of the same compound?
Its GI50 is > 100 µM (inactive).

What about the GI50 [11] of the same compound?
The GI50 was > 100 µM (inactive).

And the GI50 [12]?
The GI50 was > 100 µM (inactive).

What about the GI50 [13] of the same compound?
The GI50 was 29.1 µM (inactive).

What about the GI50 [14] of the same compound?
The GI50 was 30.8 µM (inactive).

What about the GI50 [15] of the same compound?
The GI50 was 29.4 µM (inactive).

And the GI50 [16]?
Its GI50 is > 100 µM (inactive).

What about the GI50 [17] of the same compound?
The GI50 was > 100 µM (inactive).

And the GI50 [18]?
The GI50 was > 100 µM (inactive).

And the GI50 [19]?
Its GI50 is 25.9 µM (inactive).

What about the GI50 [20] of the same compound?
The GI50 was > 100 µM (inactive).

What about the GI50 [21] of the same compound?
Its GI50 is > 100 µM (inactive).

And the GI50 [22]?
Its GI50 is > 100 µM (inactive).

What about the GI50 [23] of the same compound?
Its GI50 is > 100 µM (inactive).

And the GI50 [24]?
Its GI50 is 45.1 µM (inactive).

And the GI50 [25]?
Its GI50 is > 100 µM (inactive).

What about the GI50 [26] of the same compound?
Its GI50 is 85.3 µM (inactive).

What about the GI50 [27] of the same compound?
The GI50 was 50.6 µM (inactive).

And the GI50 [28]?
Its GI50 is > 100 µM (inactive).

What about the GI50 [29] of the same compound?
The GI50 was > 100 µM (inactive).

And the GI50 [30]?
The GI50 was 82.8 µM (inactive).

And the GI50 [31]?
Its GI50 is 25.8 µM (inactive).

What about the GI50 [32] of the same compound?
Its GI50 is 34.1 µM (inactive).

What about the GI50 [33] of the same compound?
Its GI50 is 32.2 µM (inactive).

What about the GI50 [34] of the same compound?
Its GI50 is > 100 µM (inactive).

And the GI50 [35]?
Its GI50 is > 100 µM (inactive).

And the GI50 [36]?
The GI50 was > 100 µM (inactive).

What about the GI50 [37] of the same compound?
The GI50 was > 100 µM (inactive).

What about the GI50 [38] of the same compound?
The GI50 was > 100 µM (inactive).

And the GI50 [39]?
Its GI50 is > 100 µM (inactive).

What about the GI50 [40] of the same compound?
Its GI50 is > 100 µM (inactive).

And the GI50 [41]?
The GI50 was > 100 µM (inactive).

And the GI50 [42]?
The GI50 was > 100 µM (inactive).

What about the GI50 [43] of the same compound?
The GI50 was 19.5 µM (inactive).

And the GI50 [44]?
The GI50 was > 100 µM (inactive).

What about the GI50 [45] of the same compound?
The GI50 was 65.6 µM (inactive).

And the GI50 [46]?
The GI50 was > 100 µM (inactive).

And the GI50 [47]?
Its GI50 is > 100 µM (inactive).

And the GI50 [48]?
The GI50 was > 100 µM (inactive).

What about the GI50 [49] of the same compound?
Its GI50 is > 100 µM (inactive).

What about the GI50 [50] of the same compound?
The GI50 was > 100 µM (inactive).

What about the GI50 [51] of the same compound?
The GI50 was 36.7 µM (inactive).

And the GI50 [52]?
Its GI50 is > 100 µM (inactive).

What about the GI50 [53] of the same compound?
The GI50 was > 100 µM (inactive).

And the GI50 [54]?
Its GI50 is 25.1 µM (inactive).

What about the GI50 [55] of the same compound?
Its GI50 is > 100 µM (inactive).

And the GI50 [56]?
The GI50 was > 100 µM (inactive).

What does the source list for NC(=O)NNC(=O)CCn1[nH]c(=O)c(Cl)c(Cl)c1=O?
GI50 [1]: > 100 µM (inactive); GI50 [2]: > 100 µM (inactive); GI50 [3]: > 100 µM; GI50 [4]: > 100 µM (inactive); GI50 [6]: > 100 µM (inactive); GI50 [7]: > 100 µM (inactive); GI50 [8]: > 100 µM (inactive); GI50 [9]: > 100 µM (inactive); GI50 [57]: > 100 µM (inactive); GI50 [10]: > 100 µM (inactive); GI50 [11]: > 100 µM (inactive); GI50 [12]: > 100 µM (inactive); GI50 [13]: > 100 µM (inactive); GI50 [14]: > 100 µM (inactive); GI50 [15]: > 100 µM (inactive); GI50 [16]: > 100 µM (inactive); GI50 [17]: > 100 µM (inactive); GI50 [18]: > 100 µM (inactive); GI50 [19]: > 100 µM (inactive); GI50 [20]: > 100 µM (inactive); GI50 [21]: > 100 µM (inactive); GI50 [22]: > 100 µM (inactive); GI50 [23]: > 100 µM (inactive); GI50 [24]: > 100 µM (inactive); GI50 [25]: > 100 µM (inactive); GI50 [26]: > 100 µM (inactive); GI50 [27]: > 100 µM (inactive); GI50 [28]: > 100 µM (inactive); GI50 [29]: > 100 µM (inactive); GI50 [30]: > 100 µM (inactive); GI50 [58]: > 100 µM (inactive); GI50 [31]: > 100 µM (inactive); GI50 [32]: > 100 µM (inactive); GI50 [33]: > 100 µM (inactive); GI50 [34]: > 100 µM (inactive); GI50 [35]: > 100 µM (inactive); GI50 [36]: > 100 µM (inactive); GI50 [37]: > 100 µM (inactive); GI50 [38]: > 100 µM (inactive); GI50 [39]: > 100 µM (inactive); GI50 [40]: > 100 µM (inactive); GI50 [41]: > 100 µM (inactive); GI50 [43]: > 100 µM (inactive); GI50 [44]: > 100 µM (inactive); GI50 [45]: > 100 µM (inactive); GI50 [59]: > 100 µM (inactive); GI50 [48]: > 100 µM (inactive); GI50 [49]: > 100 µM (inactive); GI50 [50]: > 100 µM (inactive); GI50 [51]: > 100 µM (inactive); GI50 [52]: > 100 µM (inactive); GI50 [54]: > 100 µM (inactive); GI50 [55]: > 100 µM (inactive)
